Biological target: Tyrosine-protein kinase BTK (Homo sapiens, UniProt Q06187)
Test: In Vitro Assay for the Inhibition of BTK Kinase Activity: 1: Test Principle:Mobility-Shift Assay, which is microfluidic chip technology, applies the basic concept of capillary electrophoresis to microfluidic environments. The substrate used for the experiment is a polypeptide with a fluorescent label. Under the action of enzyme in the reaction system, the substrate is transformed into a product, and the charge the substrate carries also changes accordingly. The use of the charge difference between the substrate and the product involved in Mobility-Shift Assay achieves the separating of the two, and they are tested respectively.

Chain of Tyrosine-protein kinase BTK (Q06187 whole entry): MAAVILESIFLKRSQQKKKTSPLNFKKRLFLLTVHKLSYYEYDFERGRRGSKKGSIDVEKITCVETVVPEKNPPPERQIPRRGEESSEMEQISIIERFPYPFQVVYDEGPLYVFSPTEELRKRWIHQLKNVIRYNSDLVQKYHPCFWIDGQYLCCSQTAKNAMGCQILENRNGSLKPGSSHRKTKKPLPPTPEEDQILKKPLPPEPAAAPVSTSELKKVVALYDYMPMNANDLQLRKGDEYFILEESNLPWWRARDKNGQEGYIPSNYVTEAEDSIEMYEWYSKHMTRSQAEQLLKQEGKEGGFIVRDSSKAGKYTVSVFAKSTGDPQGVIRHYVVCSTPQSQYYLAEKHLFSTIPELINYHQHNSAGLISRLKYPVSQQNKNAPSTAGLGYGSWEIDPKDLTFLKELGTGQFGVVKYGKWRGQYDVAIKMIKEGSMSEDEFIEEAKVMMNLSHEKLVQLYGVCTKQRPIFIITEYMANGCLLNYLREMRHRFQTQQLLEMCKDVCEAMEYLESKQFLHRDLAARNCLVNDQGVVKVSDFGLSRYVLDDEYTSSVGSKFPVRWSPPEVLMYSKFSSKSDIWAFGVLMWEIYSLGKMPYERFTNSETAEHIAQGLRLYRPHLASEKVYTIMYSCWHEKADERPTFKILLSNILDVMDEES

IC50: 4.7 nM
Compound: C=CC(=O)N1CC2CCCC2C1c1nc(-c2ccc(C(=O)Nc3ccccn3)cc2)c2c(N)nccn12 (stereo unspecified)

— ChEMBL document CHEMBL5728008, “Compound used as Bruton's tyrosine kinase inhibitor and preparation method and application thereof” (2020)
